Experimental data as given in ChEMBL document CHEMBL2331210, “New 2-benzylsulfanyl-nicotinic acid based 1,3,4-oxadiazoles: their synthesis and biological evaluation” (2013).
Converted amounts (≈) assume the structure as drawn.

Legend:
[1] = test system: K562; experiment: Antitumor activity against human K562 cells assessed as cell growth at 0.1 uM; type: functional; details: read-out: Activity
[2] = test system: MDA-MB-231; experiment: Antitumor activity against human MDA-MB-231/ATCC cells assessed as cell growth at 0.1 uM; type: functional; details: read-out: Activity
[3] = test system: RXF 393; experiment: Antitumor activity against human RXF393 cells assessed as cell growth at 0.1 uM; type: functional; details: read-out: Activity
[4] = Antitumor activity against human HCC2998 cells assessed as cell growth at 0.1 uM; type: functional; details: HCC 2998, read-out: Activity
[5] = test system: OVCAR-8; experiment: Antitumor activity against human OVCAR8 cells assessed as cell growth at 0.1 uM; type: functional; details: read-out: Activity
[6] = test system: UACC-62; experiment: Antitumor activity against human UACC62 cells assessed as cell growth at 0.1 uM; type: functional; details: read-out: Activity
[7] = test system: HCT-15; experiment: Antitumor activity against human HCT15 cells assessed as cell growth at 0.1 uM; type: functional; details: read-out: Activity
[8] = test system: Streptococcus pyogenes; experiment: Antimicrobial activity against Streptococcus pyogenes MTCC 442 assessed as growth inhibition measured after overnight incubation by broth dilution method; type: functional
[9] = test system: HL-60; experiment: Antitumor activity against human HL60(TB) cells assessed as cell growth at 0.1 uM; type: functional; details: read-out: Activity
[10] = test system: MDA-MB-468; experiment: Antitumor activity against human MDA-MB-468 cells assessed as cell growth at 0.1 uM; type: functional; details: read-out: Activity
[11] = test system: RPMI-8226; experiment: Antitumor activity against human RPMI8226 cells assessed as cell growth at 0.1 uM; type: functional; details: read-out: Activity
[12] = test system: PC-3; experiment: Antitumor activity against human PC3 cells assessed as cell growth at 0.1 uM; type: functional; details: read-out: Activity
[13] = test system: SNB-19; experiment: Antitumor activity against human SNB19 cells assessed as cell growth at 0.1 uM; type: functional; details: read-out: Activity
[14] = test system: CAKI-1; experiment: Antitumor activity against human CAKI-1 cells assessed as cell growth at 0.1 uM; type: functional; details: read-out: Activity
[15] = test system: Aspergillus clavatus; experiment: Antimicrobial activity against Aspergillus clavatus MTCC 1323 assessed as growth inhibition measured after overnight incubation by broth dilution method; type: functional
[16] = test system: SK-MEL-2; experiment: cells; details: Homo sapiens, SK-MEL-2, read-out: Activity
Description: Antitumor activity against human SK-MEL-2 cells assessed as cell growth at 0.1 uM

[17] = Antitumor activity against human Hs 578T cells assessed as cell growth at 0.1 uM; type: functional; details: read-out: Activity
[18] = test system: CCRF-CEM; experiment: Antitumor activity against human CCRF-CEM cells assessed as cell growth at 0.1 uM; type: functional; details: read-out: Activity
[19] = test system: LOX IMVI; experiment: Antitumor activity against human LOXIMVI cells assessed as cell growth at 0.1 uM; type: functional; details: read-out: Activity
[20] = test system: M14; experiment: Antitumor activity against human M14 cells assessed as cell growth at 0.1 uM; type: functional; details: read-out: Activity
[21] = test system: SK-MEL-5; experiment: Antitumor activity against human SK-MEL-5 cells assessed as cell growth at 0.1 uM; type: functional; details: read-out: Activity
[22] = test system: SNB-75; experiment: Antitumor activity against human SNB75 cells assessed as cell growth at 0.1 uM; type: functional; details: read-out: Activity
[23] = test system: HCT-116; experiment: Antitumor activity against human HCT116 cells assessed as cell growth at 0.1 uM; type: functional; details: read-out: Activity
[24] = test system: UO-31; experiment: Antitumor activity against human UO31 cells assessed as cell growth at 0.1 uM; type: functional; details: read-out: Activity
[25] = test system: Staphylococcus aureus; experiment: Antimicrobial activity against Staphylococcus aureus MTCC 96 assessed as growth inhibition measured after overnight incubation by broth dilution method; type: functional
[26] = test system: SW-620; experiment: Antitumor activity against human SW620 cells assessed as cell growth at 0.1 uM; type: functional; details: read-out: Activity
[27] = test system: DU-145; experiment: Antitumor activity against human DU145 cells assessed as cell growth at 0.1 uM; type: functional; details: read-out: Activity
[28] = test system: Aspergillus niger; experiment: Antimicrobial activity against Aspergillus niger MTCC 282 assessed as growth inhibition measured after overnight incubation by broth dilution method; type: functional
[29] = test system: HOP-92; experiment: Antitumor activity against human HOP92 cells assessed as cell growth at 0.1 uM; type: functional; details: read-out: Activity
[30] = test system: NCI/ADR-RES; experiment: Antitumor activity against human NCI/ADR-RES cells assessed as cell growth at 0.1 uM; type: functional; details: read-out: Activity
[31] = test system: ACHN; experiment: Antitumor activity against human ACHN cells assessed as cell growth at 0.1 uM; type: functional; details: read-out: Activity
[32] = test system: SF-268; experiment: Antitumor activity against human SF268 cells assessed as cell growth at 0.1 uM; type: functional; details: read-out: Activity
[33] = test system: BT-549; experiment: Antitumor activity against human BT549 cells assessed as cell growth at 0.1 uM; type: functional; details: read-out: Activity
[34] = test system: NCI-H23; experiment: Antitumor activity against human NCI-H23 cells assessed as cell growth at 0.1 uM; type: functional; details: read-out: Activity
[35] = test system: HOP-62; experiment: Antitumor activity against human HOP62 cells assessed as cell growth at 0.1 uM; type: functional; details: read-out: Activity
[36] = test system: Escherichia coli; experiment: Antimicrobial activity against Escherichia coli MTCC 443 assessed as growth inhibition measured after overnight incubation by broth dilution method; type: functional
[37] = test system: IGROV-1; experiment: Antitumor activity against human IGROV1 cells assessed as cell growth at 0.1 uM; type: functional; details: read-out: Activity
[38] = test system: A549; experiment: Antitumor activity against human A549/ATCC cells assessed as cell growth at 0.1 uM; type: functional; details: read-out: Activity
[39] = test system: SF-539; experiment: Antitumor activity against human SF539 cells assessed as cell growth at 0.1 uM; type: functional; details: read-out: Activity
[40] = test system: OVCAR-4; experiment: Antitumor activity against human OVCAR4 cells assessed as cell growth at 0.1 uM; type: functional; details: read-out: Activity
[41] = Antitumor activity against human EKVX cells assessed as cell growth at 0.1 uM; type: functional; details: read-out: Activity
[42] = test system: MCF7; experiment: Antitumor activity against human MCF7 cells assessed as cell growth at 0.1 uM; type: functional; details: read-out: Activity
[43] = test system: A498; experiment: Antitumor activity against human A498 cells assessed as cell growth at 0.1 uM; type: functional; details: read-out: Activity
[44] = test system: OVCAR-3; experiment: Antitumor activity against human OVCAR3 cells assessed as cell growth at 0.1 uM; type: functional; details: read-out: Activity
[45] = test system: NCI-H460; experiment: Antitumor activity against human NCI-H460 cells assessed as cell growth at 0.1 uM; type: functional; details: read-out: Activity
[46] = test system: SK-OV-3; experiment: Antitumor activity against human SKOV3 cells assessed as cell growth at 0.1 uM; type: functional; details: read-out: Activity
[47] = test system: MOLT-4; experiment: Antitumor activity against human MOLT4 cells assessed as cell growth at 0.1 uM; type: functional; details: read-out: Activity
[48] = test system: Candida albicans; experiment: Antimicrobial activity against Candida albicans MTCC 227 assessed as growth inhibition measured after overnight incubation by broth dilution method; type: functional
[49] = test system: SK-MEL-28; experiment: Antitumor activity against human SK-MEL-28 cells assessed as cell growth at 0.1 uM; type: functional; details: read-out: Activity
[50] = test system: Malme-3M; experiment: Antitumor activity against human MALME-3M cells assessed as cell growth at 0.1 uM; type: functional; details: read-out: Activity
[51] = test system: NCI-H522; experiment: Antitumor activity against human NCI-H522 cells assessed as cell growth at 0.1 uM; type: functional; details: read-out: Activity
[52] = test system: OVCAR-5; experiment: Antitumor activity against human OVCAR5 cells assessed as cell growth at 0.1 uM; type: functional; details: read-out: Activity
[53] = test system: HT-29; experiment: Antitumor activity against human HT-29 cells assessed as cell growth at 0.1 uM; type: functional; details: read-out: Activity
[54] = test system: MDA-MB-435; experiment: Antitumor activity against human MDA-MB-435 cells assessed as cell growth at 0.1 uM; type: functional; details: read-out: Activity
[55] = test system: NCI-H226; experiment: Antitumor activity against human NCI-H226 cells assessed as cell growth at 0.1 uM; type: functional; details: read-out: Activity
[56] = test system: SN12C; experiment: Antitumor activity against human SN12C cells assessed as cell growth at 0.1 uM; type: functional; details: read-out: Activity
[57] = test system: U-251; experiment: Antitumor activity against human U251 cells assessed as cell growth at 0.1 uM; type: functional; details: read-out: Activity
[58] = test system: T47D; experiment: Antitumor activity against human T47D cells assessed as cell growth at 0.1 uM; type: functional; details: read-out: Activity
[59] = test system: SR; experiment: Antitumor activity against human SR cells assessed as cell growth at 0.1 uM; type: functional; details: read-out: Activity
[60] = test system: Pseudomonas aeruginosa; experiment: Antimicrobial activity against Pseudomonas aeruginosa MTCC 2488 assessed as growth inhibition measured after overnight incubation by broth dilution method; type: functional
[61] = test system: SF-295; experiment: Antitumor activity against human SF295 cells assessed as cell growth at 0.1 uM; type: functional; details: read-out: Activity
[62] = test system: UACC-257; experiment: Antitumor activity against human UACC257 cells assessed as cell growth at 0.1 uM; type: functional; details: read-out: Activity
[63] = test system: Mycobacterium tuberculosis; experiment: Antitubercular activity against Mycobacterium tuberculosis H37Rv assessed as growth inhibition after 12 to 28 days by L.J. agar MIC method; type: functional
[64] = test system: TK-10; experiment: Antitumor activity against human TK10 cells assessed as cell growth at 0.1 uM; type: functional; details: read-out: Activity

Cc1ccc2sc(-c3ccc(NC(=O)CSc4nnc(-c5cccnc5SCc5ccccc5)o4)cc3)nc2c1
growth at 0.1 µM [1]: 101%
growth at 0.1 µM [2]: 71.4%
growth at 0.1 µM [3]: 114%
growth at 0.1 µM [4]: 106%
growth at 0.1 µM [5]: 94.3%
growth at 0.1 µM [6]: 104%
growth at 0.1 µM [7]: 111%
MIC [8]: 25 µg/mL (≈ 43 µM)
growth at 0.1 µM [9]: 97.3%
growth at 0.1 µM [10]: 92.2%
growth at 0.1 µM [11]: 92.2%
growth at 0.1 µM [12]: 91.8%
growth at 0.1 µM [13]: 104%
growth at 0.1 µM [14]: 87.8%
MIC [15]: 500 µg/mL (≈ 859 µM)
growth at 0.1 µM [16]: 89.8%
growth at 0.1 µM [17]: 92.3%
growth at 0.1 µM [18]: 93.1%
growth at 0.1 µM [19]: 93.6%
growth at 0.1 µM [20]: 97.4%
growth at 0.1 µM [21]: 89.9%
growth at 0.1 µM [22]: 95.6%
growth at 0.1 µM [23]: 95.4%
growth at 0.1 µM [24]: 59.3%
MIC [25]: 100 µg/mL (≈ 172 µM)
growth at 0.1 µM [26]: 104%
growth at 0.1 µM [27]: 87.5%
MIC [28]: 1000 µg/mL (≈ 1720 µM)
growth at 0.1 µM [29]: 93.4%
growth at 0.1 µM [30]: 99.5%
growth at 0.1 µM [31]: 90.8%
growth at 0.1 µM [32]: 91.6%
growth at 0.1 µM [33]: 91.6%
growth at 0.1 µM [34]: 96.6%
growth at 0.1 µM [35]: 96.8%
MIC [36]: 100 µg/mL (≈ 172 µM)
growth at 0.1 µM [37]: 99.7%
growth at 0.1 µM [38]: 104%
growth at 0.1 µM [39]: 92.9%
growth at 0.1 µM [40]: 98.8%
growth at 0.1 µM [41]: 89.9%
growth at 0.1 µM [42]: 81.2%
growth at 0.1 µM [43]: 105%
growth at 0.1 µM [44]: 100%
growth at 0.1 µM [45]: 101%
growth at 0.1 µM [46]: 105%
growth at 0.1 µM [47]: 92.2%
MIC [48]: 250 µg/mL (≈ 430 µM)
growth at 0.1 µM [49]: 114%
growth at 0.1 µM [50]: 99.3%
growth at 0.1 µM [51]: 87.9%
growth at 0.1 µM [52]: 107%
growth at 0.1 µM [53]: 100%
growth at 0.1 µM [54]: 107%
growth at 0.1 µM [55]: 80.8%
growth at 0.1 µM [56]: 102%
growth at 0.1 µM [57]: 106%
growth at 0.1 µM [58]: 87.8%
growth at 0.1 µM [59]: 82.6%
MIC [60]: 62.5 µg/mL (≈ 107 µM)
growth at 0.1 µM [61]: 107%
growth at 0.1 µM [62]: 113%
growth inhibition (GI) [63]: 99%
MIC ([63]; Mycobacterium tuberculosis, H37Rv): 62.5 µg/mL (≈ 107 µM)
growth at 0.1 µM [64]: 118%
